In patent US20120128654A1, “Allantoin Administration for the Treatment of Neurodegenerative Disease and Neurotrauma” (UNIVERSITY OF CINCINNATI, priority 2009, published 2012):
Entries after “also recorded” stand apart in the source; their conditions may differ.

Experiments:
[1] = test system: cortex and hippocampus apoptosis; settings: twice daily i.p., neonatal MCA occlusion; cited from earlier work
[2] = test system: NOX-1 expression in the SN; assay: NOX-1 immunohistochemistry, counts of NOX-1ir cells in the SN after 6-OHDA; type: in vivo, Sprague Dawley rats
Experimental: Rats were anesthetized prior to surgery with Equi-Thesin (0.3 ml/100 g body weight i.p.; chloral hydrate 42.5 mg/ml+sodium pentobarbital 9.72 mg/ml), their heads shaved, and then they were placed in a stereotaxic frame. Their skin was swabbed with Betadyne followed by 70% ETOH. The scalp was then opened to expose the skull. Two 1 mm holes were drilled into the skull and rats were injected in two sites in the striatum with 6-OHDA (MP Biomedicals, Solon, Ohio; 5 μg/μl 6-OHDA in 0.2% ascorbic acid, 0.9% saline solution). The coordinates for these injections were AP −1.6 mm, ML +2.4 mm, DV −4.2 mm and AP −0.2 mm, +ML 2.6 mm, DV −7.0 mm. The needle was zeroed at the skull directly above the injection site in order to target the DV coordinate. For each injection, the needle was lowered slowly to the injection site and 1 minute elapsed before injection commenced, 6-OHDA was injected at 0.5 μl/minute and at the end of the injection the needle was held in place for an additional 2 minutes prior to retraction. The wound area was cleaned with Betadine solution and the scalp was closed with surgical wound clips. This lesion paradigm results in a progressive loss of TH phenotype and frank DA cell death.
Brains were frozen on dry ice and sectioned at a 40 μm thickness using a sliding microtome. Every sixth section through the midbrain was for incubated 30 minutes in sodium citrate 10 mM at 80 degrees Celsius. Following blocking in 10% normal goat serum, tissue was incubated in primary antisera directed against NOX-1 (Santa Cruz Biotechnology, Santa Cruz, Calif., 1:1000). Following primary incubation, sections were incubated in biotinylated secondary antisera against rabbit IgG (Vector Laboratory, Burlingame, Calif., 1:200) followed by the Vector ABC detection kit employing horseradish peroxidase. Antibody labeling was visualized by exposure to 0.5 mg/ml 3,3′ diaminobenzidine (DAB) and 0.03% H2O2 in Tris buffer. Sections were mounted on subbed slides, dehydrated to xylene and coverslipped with Cytoseal.
Absolute counts of NOX-1ir cells was performed using a BX52 Olympus microscope interfaced with Microbrightfield stereological software and a Microfire CCD camera. Counts of NOX1-ir neurons were made at 20× and the sum of these values was adjusted according to the method of Abercrombie (Abercrombie, M., Estimation of nuclear populations from microtome sections, Anat. Rec. 94:239-247 (1946)). To assure that no cells were excluded or counted more than once, each cell was marked utilizing StereoInvestigator 7.0 (Microbrightfield Williston, Vt.). The total number of markers recorded by the software was utilized to estimate the total number of NOX-1ir cells (Fawcettt, et al., Dopaminergic neuronal survival and the effects of bFGF in explant, three dimensional and monolayer cultures of embryonic rat ventral mesencephalon, Exp. Brain Res. 106:275-82 (1995)).
Increased NOX-1 expression is directly linked to increased oxidative stress (Vignais, P., The superoxide-generating NADPF oxidase: structural aspects and activation mechanism, Cell Mol. Life Sci. 59:1428-59 (2002)). To determine the effect of ALL on NOX-1 expression in the SN and Red Nucleus, animals received either ALL pellets (n=6) or sham implantation (n=6). Pellet implantation surgery took place 3 days prior to intrastriatal 6-OHDA infusion. Twenty-four hours post-lesion, animals were sacrificed via intracardial saline perfusion and the SN was processed for NOX-1 immunohistochemistry.

[3] = in vivo; cited from earlier work
[4] = Oral allantoin administration (gavage), plasma allantoin levels in rats; type: in vivo, Sprague Dawley rats
Experimental: Rats also received oral allantoin via gastric gavage. Rats were firmly restrained via grasping the loose skin of the neck and back to immobilize the head. While maintaining the rat in an upright position, the gavage needle (20 G×1½″) was passed through the side of the mouth and advanced into the esophagus by following the roof of the mouth and advanced further toward the stomach. After the needle was passed to the correct length, 125 mg of allantoin, dissolved in water or water, was injected. This procedure was repeated daily for five days.
For plasma analysis of allantoin venous blood was obtained from the right ventricle (rat) and collected from repeated blood draws (African green monkey). Blood was immediately centrifuged at 10,500 rpms (this needs to be in G) for 5 minutes. Supernatant was then removed and analyzed for allantoin. […] Following a 15 minute incubation, absorbance was read on a spectrometer at 340 nm. […] Following a 10 minute incubation absorbance was once again measured at 340 nm. The final absorbance was subtracted from the absorbance following the addition of allantoinase. […]
Rats received oral allantoin or water via gavage once daily for 5 days. […] Allantoin levels in plasma were determined utilizing the enzymatic detection assay. […]

[5] = s.c. ALL pellets 3 days prior to 6-OHDA, twenty-four hours post-lesion, vs untreated controls

Compound | Cytochrome C expression in the cortex and hippocampus [1] | TUNEL staining in the cortex and hippocampus [1] | number of NOX-1ir cells in the SN ([2]; s.c. ALL pellets 3 days prior to 6-OHDA, overall treatment effect) | number of NOX-1ir cells in the 6-OHDA lesioned SN [2, 5] | number of NOX-1ir cells in the intact SN [2, 5] | number of NOX-1ir cells in the 6-OHDA lesioned SN ([2]; s.c. ALL pellets 3 days prior to 6-OHDA, twenty-four hours post-lesion, vs untreated controls, listed as ALL) | NOX-1 expression induced by 6-OHDA ([2]; s.c. allantoin pellets, SN) | antioxidant properties [3] | plasma allantoin levels ([4]; rat, 125 mg oral gavage once daily for 5 days, blood two hours following final dose, vs water) | negative health consequences ([4]; rats, oral allantoin once daily for 5 days)
OC[C@H]1O[C@@H](n2cnc3c(O)ncnc32)[C@H](O)[C@@H]1O [inosine] | decreased | decreased | – | – | – | – | – | – | – | –
NC(=O)NC1NC(=O)NC1=O (stereo not shown) [allantoin] | – | – | decreased | significant decrease | significant decrease | significantly reduced | significantly reduced | antioxidant properties in vivo | doubling; also recorded: significant increase | Neither the rats nor the monkeys exhibited any obvious negative health consequences
